Assay results from patent publication EP4260850A1, “PHARMACEUTICAL COMPOSITION COMPRISING PTEROSIN COMPOUND AND DERIVATIVE THEREOF AS ACTIVE INGREDIENT FOR PREVENTION OR TREATMENT OF PKA-RELATED DISEASE” (GHPharm Co., Ltd., priority 2020, dated 2022).
Where two headings read alike, the source gives them in different places.

How the values were obtained:
[1] = system: B16F10 cells; assay: MTT assay, cytotoxicity in cancer cells; format: cell-based; details: for cytotoxicity: cancer cells (B16F10), result in words
Method: (§1) NIH3T3 cells, as a mouse fibroblast cell line, and B16F10 cells, as a mouse melanoma cell line, were dispensed into a 96 well plate at 2×10^3 cells/well, and cultured in DMEM supplemented with 10% fetal bovine serum (FBS) at 5% CO2 and 37°C. Compounds (pterosin A, pterosin B, pterosin C, pterosin D, pterosin P, pterosin Z, pteroside A, pteroside B and pteroside Z) were treated at different concentrations and then cultured for 48 hours. Thereafter, MTT solution (5 mg/ml) was added to each well at a concentration of […] and incubated at 37°C for 4 hours. […] After incubation for 10 minutes, optical density was measured at 550 nm by using a Microplate Reader (Molecular Devices, Spectra Max, USA). An optical density is an index representing the number of surviving cells and is calculated by the formula below, and reproducibility was confirmed through three experiments. Cell proliferation rate (%) = OD550 (sample)/OD550; (control) × 100 [formula]
(§2) As described in the experimental method, mouse embryo fibroblast cell-line (NIH3T3) as a normal cell and Mouse melanoma cell-line (B16F10) as a cancer cell were cultured in a 96-well plate, and each compound was added to the cell medium at each concentration and cultured for 48 hours, MTT was then administered, and the optical density was measured at 550 nm by using a microplate reader. The optical density is an index representing the number of surviving cells and calculated by the following formula, and reproducibility was confirmed through three experiments. Cell proliferation rate (%) = OD550 (sample)/OD550; (control) × 100 [formula]
(§3) Then, the LD50 (Lethal Dose 50) value was calculated based on the change in cell proliferation rate.

[2] = system: CREB; assay: Western blot for CREB phosphorylation level in neurons; format: cell-based; details: for CREB phosphorylation: 10 µM, FIG. 2, against positive control amx; for phosphorylation of CREB: FIG. 8, compared with pterosin B
Method: (§4) Western blot analysis was performed by using the following method. Cells were lysed in RIPA buffer (20 mM Tris-Cl pH 7.4, 1 mM EDTA, 150 mM NaCl, 1% Triton X-100, 1 mM EGTA, 1 µM Na3VO4, 2.5 mM sodium pyrophosphate, 1 µM phenylmethylsulfonyl fluoride, 1 ug/ml leupeptin). The protein concentration was calculated by using BCA Protein Assay Reagent (BioRad, Hercules, CA, USA). Protein samples were separated by SDS-PAGE and transferred to polyvinylidene difluoride (PVDF) membranes (Millipore, Bedford, MA, USA). Membranes were incubated overnight at 4 °C with primary antibodies followed by HRP-conjugated goat anti-rabbit IgG (1:5,000; Pierce; Carlsbad, CA, USA). The used primary antibodies were actin (sigma; 1:1000), p-CREB (Cell signaling; 1:1000), tubulin (Cell signaling; 1:1000), p-PKA (Cell signaling; 1:1000), p -trk (Cell signaling; 1:1000) and BDNF (Abcam; 1:1000). All membranes were visualized by using a UVP Autochemi Darkroom Imaging System (Utra-Violet Products Ltd. UK) and Immobilon Crescendo Western HRP Substrate or Luminata Forte Western HRP Substrate (Millipore, USA).

[3] = system: NIH3T3 cells; assay: MTT assay, cytotoxicity in normal cells; format: cell-based; details: for cytotoxicity: normal cells (NIH3T3), result in words
Method: as §1, §2, §3

[4] = system: CREB; assay: Western blot for CREB phosphorylation level in astrocytes; format: cell-based; details: FIG. 2
Method: as §4

[5] = Blood-brain barrier permeability (Stirwell PAMPA sandwich, BBB-1-lipid); details: for Papp at 4 h: PAMPA, pH 7.4, Pe Average
Method: Progesterone was used as a positive control and ranitidine was used as a negative control: • (1) A donor buffer at pH 7.4 was dispensed to a deep well plate and mixed with a test substance. • (2) The donor buffer was dispensed into a U.V plate by 150ul per well, and the optical density was measured: blank value. • (3) The mixture was dispensed in the deep well plate into the U.V plate by 150ul per well, and then the optical density was measured: blank value. • (4) 200ul of the mixture in step 1) was dispensed into the donor plate of the Stirwell PAMPA sandwich. • (5) The membrane of the acceptor plate of the Stirwell PAMPA sandwich was coated with 5 ul of BBB-1-lipid. • (6) A brain sink buffer was dispensed into each well on the acceptor plate by 200 ul. • (7) The acceptor plate and donor plate were combined and incubated at 25°C for 4 hours. • (8) After 4 hours of incubation, the acceptor plate and donor plate were separated, and 150 µl each was transferred to a UV plate, and the optical density was measured.

[6] = system: nerve cells (Neuron); assay: Neuron proliferation, differentiation and regeneration promoting ability (microscopy); format: cell-based; details: against control group, FIG. 11
Method: The abilities of pterosin compounds to promote nerve cell proliferation, differentiation and regeneration were evaluated.

[7] = system: hippocampal slice; assay: Electrophysiology in hippocampal slices (fEPSP, LTP); set-up: species or system mouse; details: theta-burst stimulation, FIG. 10
Method: • 1. The brain of a 4-month-old mouse was placed on an ice-cold dissection buffer, and a 300 µm-thick sagittal hippocampal slice was prepared by using a vibratome (dissection buffer: contents in mM: […], 25 NaHCO3, 5 KCl, 1.25 NaH2PO4, 0.5 CaCl2, 3.5 MgSO4, 10 D-glucose, 1.25 L-ascorbic acid and 2 Na-pyruvate bubbled with 95% O2/5% CO2). • 2. Slices were recovered at 32°C for 1 hour in normal ACSF (ACSF: mM: 125 NaCl, 2.5 KCl, 1.25 NaH2PO4, 25 NaHCO3, 10 glucose, 2.5 CaCl2 and 1.3 MgCl2 oxygen in 95% O2/5% CO2). • 3. During recording, the slices were moved to a chamber submerged in ACSF at 28°C, and ACSF saturated with 95% O2/5% CO2 was continuously perfused (2ml/min). A Micropipette for stimulation and recording was fabricated by using boron acid glass capillaries (Harvard Instruments) and a micropipette electrode puller. • 4. For input/output, paired-pulse ratio, and long-term potentiation (LTP) experiments, an ACSF-filled pipette (resistance: […]) was used to test the hippocampus. A field excitatory post-synaptic potential (fEPSP) was measured in the CA1 region. The fEPSP signal was amplified by using Multiclamp 700B (Molecular Devices) and digitized by using Digidata 1440A (Molecular Devices). […] The pair-pulse ratio was measured after giving the pair stimulation at intervals of 25, 50, 75, 100, 200, and 300 ms . • 6. […]

[8] = Cancer cell B16F10, cultured 48 hours, MTT, OD 550 nm
[9] = Normal cell NIH3T3, cultured 48 hours, MTT, OD 550 nm
[10] = pH 7.4, 25°C, 4 hours, controls 50 µM, Pterosin D 12.5 µM

SMILES | LD50 [1, 8] | cytotoxicity [1] | CREB phosphorylation [2] | LD50 [3, 9] | cytotoxicity [3] | CREB phosphorylation [4] | other results
Cc1c(CCO)c(CO)cc2c1C(=O)[C@@H](C)C2 [Compound 4, (2S)-pterosin P] | >5,000 µM | little cytotoxicity | did not increase CREB phosphorylation at all | >5,000 µM | little cytotoxicity | no effect | –
Cc1cc2c(c(C)c1CCO[C@@H]1O[C@H](CO)[C@@H](O)[C@H](O)[C@H]1O)C(=O)[C@](C)(CO)C2 [Compound 11, (2S)-pteroside A] | – | – | – | – | – | – | LD50 [1]: >5,000 µM; LD50 [3]: >5,000 µM
Cc1cc2c(c(C)c1CCO)C(=O)[C@H](C)C2 [Compound 2, (2R)-pterosin B] | >5,000 µM | little cytotoxicity | did not increase CREB phosphorylation at all | – | little cytotoxicity | no effect | –
Cc1cc2c(c(C)c1CCO)C(=O)C(C)(C)[C@@H]2O [Compound 5, (3R)-pterosin D] | >5,000 µM | little cytotoxicity | significantly increased | >5,000 µM | little cytotoxicity | no effect | phosphorylation of CREB [2]: statistically significantly increased; Papp at 4 h [5, 10]: 20.9 ×10⁻⁶ cm/s; Pe 1st [5, 10]: 19.74 10^-6cm/sec; Pe 2nd [5, 10]: 20.20 10^-6cm/sec; Pe 3rd [5, 10]: 22.73 10^-6cm/sec; BCS code, CNS +/- (spreadability to CNS) ([5]; pH 7.4, controls 50 µM, Pterosin D 12.5 µM): CNS+ (>10); length of nerve cells [6]: significantly longer; hippocampus mossy fiber-CA1 LTP [7]: particularly strong
CC(=O)[C@H]1CC[C@H]2[C@@H]3CCC4=CC(=O)CC[C@]4(C)[C@H]3CC[C@]12C [Progesterone, reference compound] | – | – | – | – | – | – | Papp at 4 h [5]: 28.8 ×10⁻⁶ cm/s
Cc1cc2c(c(C)c1CCO[C@@H]1O[C@H](CO)[C@@H](O)[C@H](O)[C@H]1O)C(=O)[C@H](C)C2 [Compound 9, (2R)-pteroside B] | – | – | – | – | – | – | LD50 [1]: >5,000 µM; LD50 [3]: >5,000 µM
Cc1cc2c(c(C)c1CCO)C(=O)[C@@H](C)[C@H]2O [Compound 8, (2S,3R)-pterosin C] | >5,000 µM | – | – | >5,000 µM | – | – | –
Cc1cc2c(c(C)c1CCO)C(=O)C(C)(C)C2 [Compound 3, pterosin Z] | – | weak cytotoxicity | did not increase CREB phosphorylation at all | – | weak cytotoxicity | no effect | –
Cc1cc2c(c(C)c1CCO)C(=O)[C@](C)(CO)C2 [Compound 6, (2S)-pterosin A] | – | weak cytotoxicity only in cancer cells | significantly increased | >5,000 µM | – | no effect | phosphorylation of CREB [2]: statistically significantly increased
Cc1cc2c(c(C)c1CCO[C@@H]1O[C@H](CO)[C@@H](O)[C@H](O)[C@H]1O)C(=O)C(C)(C)C2 [Compound 10, pteroside Z] | – | – | – | – | – | – | LD50 [1]: >5,000 µM; LD50 [3]: >5,000 µM
Cc1cc2c(c(C)c1CCO)C(=O)[C@@H](C)[C@@H]2O [pterosin C] | – | – | significantly increased | – | – | no effect | phosphorylation of CREB [2]: statistically significantly increased; hippocampus mossy fiber-CA1 LTP [7]: particularly strong
Cc1cc2c(c(C)c1CCO)C(=O)[C@H](C)[C@H]2O [Compound 7, (2R,3R)-pterosin C] | >5,000 µM | – | – | >5,000 µM | – | – | –
